Test [1] has as its system Mus musculus. In words: Antiinflammatory activity in carrageenan-induced Kunming mouse model of paw edema assessed as paw volume at 10 mg/kg, ip pretreated for 1 hr followed by carrageenan administration and measured after 1 hr by digital plethysmometer (reference value: 0.395 +/- 0.017 mL). The class given is functional. The following applies: time 2 hrs.
Test [2] concerns RAW264.7. The test is described as follows: Antioxidant activity in H2O2-stimulated mouse RAW264.7 cells assessed as protection against cell damage at 2 to 5 uM pretreated for 30 mins followed by H2O2 stimulation and measured after 4 hrs by MTT assay. The settings on record: dose 2-5 µM, time 4.5 hrs. Format: functional, cell-based.
Test [3] deals with RAW264.7. In words: Antiinflammatory activity in LPS-induced mouse RAW264.7 cells assessed as inhibition of NO production pretreated for 1 hr followed by LPS addition and measured after 24 hrs by griess reagent based assay. Format: functional, cell-based.
The subject of test [4] is RAW264.7. In words: Antiinflammatory activity in LPS-induced mouse RAW264.7 cells assessed as inhibition of NO production at 2 to 10 uM pretreated for 1 hr followed by LPS addition and measured after 24 hrs by griess reagent based assay. Format: functional, cell-based. The settings on record: dose 2-10 µM, time 25.0 hrs.
Test [5] concerns RAW264.7. The test is described as follows: Antiinflammatory activity in LPS-induced mouse RAW264.7 cells assessed as reduction in IL-6 level incubated for 24 hrs by ELISA. The class given is functional, cell-based.
In test [6] the test system is Mus musculus. In words: Antiinflammatory activity in carrageenan-induced Kunming mouse model of paw edema assessed as paw volume at 10 mg/kg, ip pretreated for 1 hr followed by carrageenan administration and measured immediately by digital plethysmometer (reference value: 0.116 +/- 0.042 mL). The class given is functional.
Test [7] relates to Mus musculus. In words: Antiinflammatory activity in carrageenan-induced Kunming mouse model of paw edema assessed as paw volume at 1 mg/kg, ip pretreated for 1 hr followed by carrageenan administration and measured after 1 hr by digital plethysmometer (reference value: 0.395 +/- 0.017 mL). Format: functional. The following applies: time 2 hrs.
Test [8] relates to Mus musculus. The test is described as follows: Antiinflammatory activity in carrageenan-induced Kunming mouse model of paw edema assessed as paw volume at 10 mg/kg, ip pretreated for 1 hr followed by carrageenan administration and measured after 3 hrs by digital plethysmometer (reference value: 0.377 +/- 0.018 mL). The class given is functional. The following applies: time 4 hrs.

The test system of test [9] is Mus musculus. The test is described as follows: Antiinflammatory activity in carrageenan-induced Kunming mouse model of paw edema assessed as paw volume at 30 mg/kg, ip pretreated for 1 hr followed by carrageenan administration and measured after 3 hrs by digital plethysmometer (reference value: 0.377 +/- 0.018 mL). The class given is functional. The settings on record: time 4 hrs.

The test system of test [10] is Mus musculus. The test is described as follows: Antiinflammatory activity in carrageenan-induced Kunming mouse model of paw edema assessed as paw volume at 1 mg/kg, ip pretreated for 1 hr followed by carrageenan administration and measured after 5 hrs by digital plethysmometer (reference value: 0.362 +/- 0.016 mL). Format: functional. The settings on record: time 6 hrs.

Test [11] deals with Mus musculus. In words: Antiinflammatory activity in carrageenan-induced Kunming mouse model of paw edema assessed as paw volume at 10 mg/kg, ip pretreated for 1 hr followed by carrageenan administration and measured after 5 hrs by digital plethysmometer (reference value: 0.362 +/- 0.016 mL). The following applies: time 6 hrs. The class given is functional.
The test system of test [12] is Mus musculus. The test is described as follows: Antiinflammatory activity in carrageenan-induced Kunming mouse model of paw edema assessed as paw volume at 30 mg/kg, ip pretreated for 1 hr followed by carrageenan administration and measured after 5 hrs by digital plethysmometer (reference value: 0.362 +/- 0.016 mL). The class given is functional. The following applies: time 6 hrs.

Test [13] concerns Mus musculus. In words: Antiinflammatory activity in carrageenan-induced Kunming mouse model of paw edema assessed as edema inhibition at 10 mg/kg, ip pretreated for 1 hr followed by carrageenan administration and measured after 3 hrs relative to control. The class given is functional. The settings on record: time 4 hrs.
Test [14] concerns Mus musculus. In words: Antiinflammatory activity in carrageenan-induced Kunming mouse model of paw edema assessed as edema inhibition at 1 mg/kg, ip pretreated for 1 hr followed by carrageenan administration and measured after 5 hrs relative to control. The class given is functional. The following applies: time 6 hrs.
Test [15] relates to Mus musculus. In words: Antiinflammatory activity in carrageenan-induced Kunming mouse model of paw edema assessed as paw volume at 30 mg/kg, IG pretreated for 1 hr followed by carrageenan administration and measured immediately by digital plethysmometer (reference value: 0.144 +/- 0.026 mL). The class given is functional.
The test system of test [16] is Mus musculus. In words: Antiinflammatory activity in carrageenan-induced Kunming mouse model of paw edema assessed as paw volume at 30 mg/kg, IG pretreated for 1 hr followed by carrageenan administration and measured after 1 hr by digital plethysmometer (reference value: 0.407 +/- 0.023 mL). The following applies: time 2 hrs. Format: functional.
The subject of test [17] is Mus musculus. In words: Antiinflammatory activity in carrageenan-induced Kunming mouse model of paw edema assessed as edema inhibition at 30 mg/kg, IG pretreated for 1 hr followed by carrageenan administration and measured after 5 hrs relative to control. Format: functional. The following applies: po, time 6 hrs.
Test [18] has as its system Mus musculus. In words: Antiinflammatory activity in carrageenan-induced Kunming mouse model of paw edema assessed as reduction in iNOS protein expression in paw tissue at 1 to 30 mg/kg, ip pretreated for 1 hr followed by carrageenan administration and measured after 5 hrs by Western blot analysis. The class given is functional, organism-based. The settings on record: dose 1-30 mg/kg, time 6.0 hrs.

The values that follow come from ChEMBL document CHEMBL5537118, “Synthesis of cinnamoyl tethered indoline derivatives with anti-inflammatory and antioxidant activities” (Eur J Med Chem, 2024).

SMILES strings stand for the structures. Active and inactive are the calls of the source. The rule behind the calls is not given here.

`O=C(/C=C/c1ccc(O)c(O)c1)NCCCN1CCc2cc(Cl)ccc21`: the Activity was 0.189 mL in the test with Mus musculus [1]; “Dose-Dependent Effect” in the test on RAW264.7 [5]; 0.128 mL in the test on Mus musculus [6]; 0.32 mL with Mus musculus [7]; 0.175 mL in the test with Mus musculus [8]; 0.143 mL with Mus musculus [9]. The Activity in the test with Mus musculus [10] amounted to 0.225 mL; with Mus musculus [11] it was 0.155 mL; in the test with Mus musculus [12], 0.137 mL; in the test on Mus musculus [15], 0.138 mL; in the test on Mus musculus [16], 0.339 mL. Further, the outcome in the test with RAW264.7 [2], in the test on RAW264.7 [4] and with Mus musculus [18] was Active. In addition, the IC50 with RAW264.7 [3] stood at 0.9 µM; in the test on RAW264.7 [5] (RAW264.7, 24 h), 1.73 µM. In the test on Mus musculus [13], the inhibition in vivo at 10 mg/kg is 82.8%. Also, the inhibition in vivo at 1 mg/kg in the test with Mus musculus [14] stood at 57.3%. Also, in the test on Mus musculus [17], the inhibition in vivo at 30 mg/kg stood at 58.1%.
